Measured values taken from BindingDB's records for PubMed 9686407 (Sri International, 1998).
Where a name gives a salt, the structure may show the parent alone.

Assays:
[1] = biological target: T1, 5-hydroxytryptamine receptor 1A (Homo sapiens, UniProt P08908)
T1 sequence (P08908 whole entry): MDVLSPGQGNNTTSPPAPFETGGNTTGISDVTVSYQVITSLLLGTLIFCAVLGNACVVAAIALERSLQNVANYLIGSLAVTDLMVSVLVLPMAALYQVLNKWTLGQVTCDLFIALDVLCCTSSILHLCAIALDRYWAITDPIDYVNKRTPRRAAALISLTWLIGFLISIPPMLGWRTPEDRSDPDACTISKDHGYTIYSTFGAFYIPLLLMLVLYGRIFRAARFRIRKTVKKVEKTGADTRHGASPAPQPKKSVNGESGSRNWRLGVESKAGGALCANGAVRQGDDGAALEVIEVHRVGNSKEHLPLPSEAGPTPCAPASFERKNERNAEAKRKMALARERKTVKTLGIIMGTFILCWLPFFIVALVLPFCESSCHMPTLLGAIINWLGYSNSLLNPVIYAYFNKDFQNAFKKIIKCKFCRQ

[2] = biological target: 5-hydroxytryptamine receptor 2A (Rattus norvegicus, UniProt P14842)
Sequence of 5-hydroxytryptamine receptor 2A (P14842 whole entry): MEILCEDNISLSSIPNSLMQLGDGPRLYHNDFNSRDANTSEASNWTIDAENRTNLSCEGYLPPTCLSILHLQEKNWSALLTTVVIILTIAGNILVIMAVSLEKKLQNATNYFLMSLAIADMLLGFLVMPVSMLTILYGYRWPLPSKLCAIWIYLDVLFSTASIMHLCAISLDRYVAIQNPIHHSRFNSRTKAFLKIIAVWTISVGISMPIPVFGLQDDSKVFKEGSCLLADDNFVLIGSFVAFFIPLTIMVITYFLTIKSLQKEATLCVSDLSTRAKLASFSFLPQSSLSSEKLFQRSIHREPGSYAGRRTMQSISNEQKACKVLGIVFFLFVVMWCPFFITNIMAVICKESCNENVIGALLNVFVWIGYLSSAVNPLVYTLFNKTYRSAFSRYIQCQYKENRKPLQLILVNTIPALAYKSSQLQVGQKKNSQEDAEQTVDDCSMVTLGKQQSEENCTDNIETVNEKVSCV

[3] = biological target: T2, 5-hydroxytryptamine receptor 3A (Mus musculus, UniProt P23979)
T2 sequence (P23979 whole entry): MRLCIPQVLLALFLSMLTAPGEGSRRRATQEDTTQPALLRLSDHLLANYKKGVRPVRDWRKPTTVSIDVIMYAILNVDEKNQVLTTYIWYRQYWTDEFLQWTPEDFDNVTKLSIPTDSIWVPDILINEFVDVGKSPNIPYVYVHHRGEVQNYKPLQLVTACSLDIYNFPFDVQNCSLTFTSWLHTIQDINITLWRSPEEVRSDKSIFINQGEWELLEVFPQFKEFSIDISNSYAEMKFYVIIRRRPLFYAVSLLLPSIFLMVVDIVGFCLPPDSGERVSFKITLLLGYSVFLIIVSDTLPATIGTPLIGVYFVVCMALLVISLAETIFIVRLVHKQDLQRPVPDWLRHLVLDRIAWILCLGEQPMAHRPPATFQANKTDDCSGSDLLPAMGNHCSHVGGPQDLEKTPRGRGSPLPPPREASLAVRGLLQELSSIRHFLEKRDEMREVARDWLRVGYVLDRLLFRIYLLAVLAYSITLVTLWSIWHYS

D(1A) dopamine receptor = D(1A) dopamine receptor (Homo sapiens, UniProt P21728)
Sequence of D(1A) dopamine receptor (P21728 whole entry): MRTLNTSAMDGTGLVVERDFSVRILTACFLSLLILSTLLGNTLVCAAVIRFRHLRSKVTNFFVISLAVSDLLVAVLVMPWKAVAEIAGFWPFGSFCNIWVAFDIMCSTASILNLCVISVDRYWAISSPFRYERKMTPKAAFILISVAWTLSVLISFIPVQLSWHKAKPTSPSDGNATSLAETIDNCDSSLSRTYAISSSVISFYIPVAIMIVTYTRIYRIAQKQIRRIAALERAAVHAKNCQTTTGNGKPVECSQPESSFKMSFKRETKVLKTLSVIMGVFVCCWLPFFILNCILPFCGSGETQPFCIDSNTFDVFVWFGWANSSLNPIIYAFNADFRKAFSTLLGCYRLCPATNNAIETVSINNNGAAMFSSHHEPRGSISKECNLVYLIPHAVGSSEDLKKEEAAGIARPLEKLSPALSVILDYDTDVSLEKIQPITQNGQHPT

[4] = biological target: T3, 5-hydroxytryptamine receptor 2C (Rattus norvegicus, UniProt P08909)
T3 sequence (P08909 whole entry): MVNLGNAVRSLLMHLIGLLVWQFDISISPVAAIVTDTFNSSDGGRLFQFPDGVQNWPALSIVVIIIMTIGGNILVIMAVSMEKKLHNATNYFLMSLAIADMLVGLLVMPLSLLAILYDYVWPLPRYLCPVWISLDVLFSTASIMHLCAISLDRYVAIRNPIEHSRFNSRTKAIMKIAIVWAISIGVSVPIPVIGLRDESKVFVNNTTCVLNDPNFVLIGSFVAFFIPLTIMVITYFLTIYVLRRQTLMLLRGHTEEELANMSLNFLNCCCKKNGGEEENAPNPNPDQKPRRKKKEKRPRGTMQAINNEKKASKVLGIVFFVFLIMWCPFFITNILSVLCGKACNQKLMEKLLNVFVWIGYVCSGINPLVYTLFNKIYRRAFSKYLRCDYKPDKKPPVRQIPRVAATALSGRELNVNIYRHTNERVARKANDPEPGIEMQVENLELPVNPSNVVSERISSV

CN1C2CCC1CC(OC(=O)c1c[nH]c3ccccc13)C2 (stereo unspecified)
Ki [1]: > 10 µM
Ki [2]: 5.61 µM
Ki [3]: 0.0005 µM
Ki (D(1A) dopamine receptor): > 10 µM
Ki [4]: > 10 µM

NC(=O)N1c2ccccc2C=Cc2ccccc21 [5H-dibenzo[b,f]azepine-5-carboxamide]
Ki [1]: > 10 µM
Ki [2]: > 10 µM
Ki [3]: > 10 µM
Ki (D(1A) dopamine receptor): > 10 µM
Ki [4]: > 10 µM

CC(N)Cc1ccc2c(c1)OCO2 (stereo unspecified)
Ki [1]: > 10 µM
Ki [3]: > 10 µM
Ki (D(1A) dopamine receptor): > 10 µM

CN1CCN(c2nc3cc(C(F)(F)F)ccc3n3cccc23)CC1 [CAS_109028-10-6]
Ki [1]: 0.044 µM
Ki [2]: 3.13 µM
Ki [3]: > 10 µM
Ki (D(1A) dopamine receptor): 1.53 µM
Ki [4]: 6.6 µM

Cc1nc2sccn2c(=O)c1CCN1CCC(=C(c2ccc(F)cc2)c2ccc(F)cc2)CC1
Ki [3]: > 10 µM
Ki (D(1A) dopamine receptor): 0.933 µM

CN1Cc2c(N)cccc2[C@H](c2ccccc2)C1 [(+/-)-2-Methyl-4-phenyl-1,2,3,4-tetrahydro-isoquinolin-8-ylamine]
Ki [1]: 1.18 µM
Ki [3]: > 10 µM
Ki (D(1A) dopamine receptor): > 10 µM

CCc1cc(Cl)c(OC)c(C(=O)NC[C@@H]2CCCN2CC)c1O [3-Chloro-5-ethyl-N-((S)-1-ethyl-pyrrolidin-2-ylmethyl)-6-hydroxy-2-methoxy-benzamide]
Ki [1]: 1.79 µM
Ki [2]: 0.705 µM
Ki [3]: > 10 µM
Ki (D(1A) dopamine receptor): > 10 µM
Ki [4]: > 10 µM

Cc1nccn1CC1CCc2c(c3ccccc3n2C)C1=O (stereo unspecified) [NSC_68647]
Ki [1]: > 10 µM
Ki [3]: 0.015 µM
Ki (D(1A) dopamine receptor): > 10 µM

COc1ccccc1N1CCN(CCCCN2C(=O)c3ccccc3C2=O)CC1 [2-{4-[4-(2-Methoxy-phenyl)-piperazin-1-yl]-butyl}-isoindole-1,3-dione]
Ki [2]: 0.549 µM
Ki [3]: > 10 µM
Ki (D(1A) dopamine receptor): 4.51 µM
Ki [4]: 4.12 µM

OCCN1CCN(CC/C=C2/c3ccccc3Sc3ccc(C(F)(F)F)cc32)CC1 [Fluphenthixol]
Ki [2]: 0.013 µM

COC(=O)[C@@H]1[C@H]2C[C@H]3c4[nH]c5ccccc5c4CCN3C[C@@H]2CC[C@@H]1O [yohimbic acid methyl ester]
Ki [4]: > 10 µM

Cc1[nH]c2ccc(O)cc2c1CCN
Ki [2]: > 10 µM
Ki [3]: 0.995 µM
Ki (D(1A) dopamine receptor): > 10 µM
Ki [4]: 1.37 µM

CN(C)CCCN1c2ccccc2CCc2ccccc21
Ki [1]: > 10 µM
Ki [3]: 3.65 µM
Ki (D(1A) dopamine receptor): > 10 µM
Ki [4]: 0.106 µM

CCN(CC)CCNC(=O)c1cc(Cl)c(N)cc1OC [4-amino-5-chloro-N-[2-(diethylamino)ethyl]-2-methoxy-benzamide;hydrochloride]
Ki [1]: > 10 µM
Ki [3]: 0.353 µM
Ki (D(1A) dopamine receptor): > 10 µM
Ki [4]: 3.86 µM

N[C@@H]1C[C@H]1c1ccccc1 [Tranylcypromine,(+)]
Ki [1]: 5.96 µM
Ki [2]: > 10 µM
Ki [3]: > 10 µM
Ki [4]: > 10 µM

CN1CCc2cc(Cl)c(O)cc2[C@@H](c2ccccc2)C1 [SCH 23390,R(+)]
Ki [1]: 0.661 µM
Ki [2]: 0.0122 µM
Ki [3]: 3.91 µM
Ki [4]: 0.051 µM

CCCN(CCC)C1CCc2cccc(O)c2C1 (stereo unspecified)
Ki [2]: > 10 µM
Ki [3]: > 10 µM
Ki (D(1A) dopamine receptor): > 10 µM

CCCN1CCC[C@@H]2Cc3n[nH]cc3C[C@H]21 [NSC_54562]
Ki [1]: 1.71 µM
Ki [2]: > 10 µM
Ki [3]: > 10 µM
Ki [4]: > 10 µM

O=C(c1ccc(F)cc1)C1CCN(CCn2c(=O)[nH]c3ccccc3c2=O)CC1 [3-(2-{4-[(4-fluorophenyl)carbonyl]piperidin-1-yl}ethyl)-1,2,3,4-tetrahydroquinazoline-2,4-dione]
Ki [3]: > 10 µM
Ki [4]: 0.069 µM

Oc1cc2c(c(Cl)c1O)CCNC[C@@H]2c1ccccc1 [(R)-6-Chloro-7,8-dihydroxy-1-phenyl-2,3,4,5-tetrahydro-1H-benzo[d]azepinium]
Ki [1]: 5.52 µM
Ki [2]: 3.08 µM
Ki [4]: 1.51 µM

CN(C)C/C=C(/c1ccc(Br)cc1)c1cccnc1 [cis-[3-(4-Bromo-phenyl)-3-pyridin-3-yl-allyl]-dimethyl-amine;HCl]
Ki [3]: > 10 µM
Ki [4]: 0.482 µM

CNCCCN1c2ccccc2CCc2ccccc21 [Desmethylimipramine]
Ki [3]: 4.4 µM
Ki [4]: 0.748 µM

C=CCN1CCc2c(cc(O)c(O)c2Cl)C(c2ccccc2)C1 (racemic) [SKF 82958]
Ki [1]: 1.78 µM
Ki [2]: 1.29 µM
Ki [3]: > 10 µM
Ki [4]: 4.63 µM

CNc1cc(OC)c(C(=O)N[C@H]2CCN(Cc3ccccc3)[C@H]2C)cc1Cl [Nemonapride]
Ki [2]: 0.058 µM
Ki [3]: 0.526 µM
Ki [4]: 3.12 µM

CC(C)(C)[C@]1(O)CCN2C[C@H]3c4ccccc4CCc4cccc(c43)[C@@H]2C1
Ki [1]: 0.528 µM
Ki [2]: 0.0052 µM
Ki [3]: > 10 µM
Ki [4]: 1.06 µM

CCN1CCCC1CNC(=O)c1cc(S(N)(=O)=O)ccc1OC (stereo unspecified) [N-[(1-ethylpyrrolidin-2-yl)methyl]-2-methoxy-5-sulfamoylbenzamide]
Ki [1]: > 10 µM
Ki [3]: > 10 µM
Ki (D(1A) dopamine receptor): > 10 µM

CN1CCc2cccc3c2[C@H]1Cc1ccc(O)c(O)c1-3 [APOKYN]
Ki [2]: 4.38 µM
Ki [3]: > 10 µM
Ki [4]: 1.1 µM

OCCN1CCN(CC/C=C2/c3ccccc3Sc3ccc(C(F)(F)F)cc32)CC1 [(cis) 2-{4-[3-(2-Trifluoromethyl-thioxanthen-9-ylidene)-propyl]-piperazin-1-yl}-ethanol(Flupentixol)]
Ki [1]: 8.03 µM
Ki [3]: > 10 µM
Ki [4]: 0.295 µM

O=c1[nH]c2ccccc2n1C1CCN(CCCC(c2ccc(F)cc2)c2ccc(F)cc2)CC1 [1-(1-(4,4-bis(4-fluorophenyl)butyl)piperidin-4-yl)-1H-benzo[d]imidazol-2(3H)-one]
Ki [2]: 0.049 µM
Ki [3]: 3.29 µM
Ki [4]: 5.79 µM

C[C@H](N)Cc1ccccc1 [beta-aminopropylbenzene]
Ki [1]: 6.61 µM
Ki [3]: > 10 µM

O=C(CCCN1CCC2(CC1)C(=O)NCN2c1ccccc1)c1ccc(F)cc1 [8-[4-(4-fluorophenyl)-4-oxidanylidene-butyl]-1-phenyl-1,3,8-triazaspiro[4.5]decan-4-one]
Ki [3]: > 10 µM

Cc1ccc(N(CC2=NCCN2)c2cccc(O)c2)cc1 [SMR000059054]
Ki [2]: 0.222 µM
Ki [3]: 4.29 µM
Ki [4]: 0.459 µM

CN[C@@H](C)Cc1ccc2c(c1)OCO2 [MDMA, R(-)]
Ki [1]: > 10 µM
Ki [2]: 3.91 µM
Ki [3]: > 10 µM
Ki (D(1A) dopamine receptor): > 10 µM

CN(C)CCCN1c2ccccc2Sc2ccc(Cl)cc21 [[3-(2-Chloro-phenothiazin-10-yl)-propyl]-dimethyl-amine(Chlorpromazine)]
Ki [3]: 0.82 µM

OCCN1CCN(CCCN2c3ccccc3Sc3ccc(C(F)(F)F)cc32)CC1 [2-[4-[3-[2-(trifluoromethyl)phenothiazin-10-yl]propyl]piperazin-1-yl]ethanol;hydrochloride]
Ki [3]: > 10 µM

NCCc1ccc(O)c(O)c1
Ki [1]: 8.25 µM
Ki [2]: > 10 µM
Ki [3]: > 10 µM
Ki [4]: > 10 µM

C=CCN1CCc2cc(O)c(O)cc2C(c2ccccc2)C1 (stereo unspecified)
Ki [1]: 2.11 µM
Ki [2]: 2.7 µM
Ki [4]: 3.04 µM

c1ccc2nc(N3CCNCC3)ccc2c1 [2-Piperazin-1-yl-quinoline (Quipazine)]
Ki [2]: 0.092 µM
Ki [3]: 0.0032 µM
Ki (D(1A) dopamine receptor): > 10 µM
Ki [4]: 0.653 µM

NC(Cc1ccc(O)c(O)c1)C(=O)O (stereo unspecified) [2-amino-3-(3,4-dihydroxyphenyl)propanoic acid]
Ki [2]: > 10 µM
Ki [3]: > 10 µM
Ki [4]: > 10 µM

Oc1cc2c(cc1O)[C@@H](c1ccccc1)CNCC2
Ki [1]: 3.1 µM
Ki [2]: 6.16 µM
Ki [3]: > 10 µM
Ki [4]: > 10 µM
